From patent publication US8772499B2, “TRPV3 modulators” (AbbVie Inc., priority 2011, dated 2014)
Like-named read-outs stand apart in the source and are kept apart here.

Tests used:
[1] = In vitro human microsomal stability assay; type: in vitro ADME; conditions: human, microsomes, 0.5 h, 0.5 μM, pH 7.4
Procedure, shortened: (§1)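 Metabolic stability measured in Sprague-Dawley rat or human liver microsomes at 37 °C. Reactions supplemented with NADPH.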

[2] = In vitro rat microsomal stability assay; type: in vitro ADME, rat (Sprague-Dawley); conditions: Sprague-Dawley, rat, microsomes, 0.5 h, 0.5 μM, pH 7.4
Procedure, shortened: as §1

[3] = molecular target: T1, human TRPV3 (Homo sapiens, UniProt Q8NET8); assay: In vitro antagonism of recombinant human TRPV3 activation (FLIPR Tetra calcium assay); type: cell-based; conditions: HEK293 cells stably expressing human TRPV3, agonist 2-APB at 80 μM
T1 construct: expressed in transfected cells
T1 sequence (Q8NET8 1-790): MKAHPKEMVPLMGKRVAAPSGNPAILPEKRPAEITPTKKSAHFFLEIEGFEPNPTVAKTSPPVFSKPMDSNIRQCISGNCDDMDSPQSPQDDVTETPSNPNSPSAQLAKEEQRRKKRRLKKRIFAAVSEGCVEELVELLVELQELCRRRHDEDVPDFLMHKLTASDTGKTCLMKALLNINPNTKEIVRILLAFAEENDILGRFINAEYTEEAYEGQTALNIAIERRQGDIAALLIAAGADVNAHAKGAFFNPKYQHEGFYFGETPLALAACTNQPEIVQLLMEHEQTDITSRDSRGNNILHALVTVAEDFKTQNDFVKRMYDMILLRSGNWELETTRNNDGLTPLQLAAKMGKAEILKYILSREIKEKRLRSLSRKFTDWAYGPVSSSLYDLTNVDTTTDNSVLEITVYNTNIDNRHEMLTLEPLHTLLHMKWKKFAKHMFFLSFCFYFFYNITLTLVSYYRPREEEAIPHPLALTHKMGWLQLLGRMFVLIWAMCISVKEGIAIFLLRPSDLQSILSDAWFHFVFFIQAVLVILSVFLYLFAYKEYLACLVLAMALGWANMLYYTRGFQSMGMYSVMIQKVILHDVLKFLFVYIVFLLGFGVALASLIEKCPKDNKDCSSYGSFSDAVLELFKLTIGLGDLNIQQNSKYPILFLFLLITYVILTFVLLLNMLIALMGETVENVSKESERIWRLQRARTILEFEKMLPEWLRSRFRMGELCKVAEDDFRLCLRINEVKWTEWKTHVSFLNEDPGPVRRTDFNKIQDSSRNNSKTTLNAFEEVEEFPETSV
Procedure, shortened: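 HEK293 cells stably expressing human TRPV3, loaded with Calcium-4 dye for 90–120 min, received compound in DPBS, then 80 μM 2-APB (EC80) 3 min later. Max-minus-min fluorescence expressed as % of 2-APB response without antagonist; IC50 values mostly averages of n≥2 runs.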

[4] = actual measured value shown parenthetically, in most cases average of at least two runs, read-out: IC50
[5] = reported range, read-out: IC50 (range class)

| Compound | HUMAN MICROSOMAL STABILITY (% REMAINING AFTER 30 MINUTES) [1] [%] | RAT MICROSOMAL STABILITY (% REMAINING AFTER 30 MINUTES) [2] [%] | IC50 [3, 4] [µM] | IC50 [3, 5] [µM] |
| --- | --- | --- | --- | --- |
| OC(C1CCc2cccnc21)C1(c2ccc(Cl)c(Cl)c2)CCC1 (stereo not drawn) [Example 168, (syn)-[1-(3,4-dichlorophenyl)cyclobutyl][6,7-dihydro-5H-cyclopenta[b]-pyridin-7-yl]methanol] | 5.6 | <0.01 | 9.14 |  |
| O=C1CC(c2cc(C(F)(F)F)ccn2)([C@H](O)c2ccccn2)C1 [Example 277, 3-[(S)-hydroxy(pyridin-2-yl)methyl]-3-[4-(trifluoromethyl)pyridin-2-yl]-cyclobutanone] | >85 | >85 | 1.97 |  |
| OC(c1ccccn1)C1(c2ccc(F)cc2)CCC1 (centres unmarked) [Example 3, [1-(4-fluorophenyl)cyclobutyl](pyridin-2-yl)methanol] | 28 | 3.8 | 0.79 |  |
| O[C@H](c1ccccn1)[C@]1(c2cccc(C(F)(F)F)c2)C[C@@H](O)C1 [Example 264, trans-3-[(S)-hydroxy(pyridin-2-yl)methyl]-3-[3-(trifluoromethyl)phenyl]-cyclobutanol] | 56 | 59 | 0.23 |  |
| OC(c1ccccn1)C1(c2ccc(F)c(F)c2)CCCO1 (single isomer, unassigned) [Example 109, (syn)-[2-(3,4-difluorophenyl)tetrahydrofuran-2-yl](pyridin-2-yl)methanol] | 45 | 0.74 | 5.81 |  |
| CC1(O)CC(c2ccc(OC(F)(F)F)cc2)(C(O)c2ccccn2)C1 (single isomer, unassigned) [Example 203] | >85 | 74 | 13.8 |  |
| CC(c1ccc(Cl)cc1)C1(C(O)c2ccccn2)CCC1 (centres unmarked) [Example 49, {1-[1-(4-chlorophenyl)ethyl]cyclobutyl}(pyridin-2-yl)methanol] | 15 | 0.13 | 3.27 |  |
| OC(C1CCCc2cccnc21)C1(c2cccc(C(F)(F)F)c2)CCC1 (single isomer, unassigned) [Example 180, (syn)-5,6,7,8-tetrahydroquinolin-8-yl{1-[3-(trifluoromethyl)phenyl]-cyclobutyl}methanol] | <0.01 | <0.01 | > 20 | > 20 |
| CON=C1CC(c2ccc(OC(F)(F)F)cc2)([C@H](O)c2ccccn2)C1 (stereo partly drawn) [Example 249, (S)-{3-(methoxyimino)-1-[4-(trifluoromethoxy)phenyl]cyclobutyl}(pyridin-2-yl)methanol] | 61 | 3.2 | 3.93 |  |
| O[C@@H](c1ncccn1)C1(c2ccc(Cl)c(Cl)c2)CCC1 [Example 40, (R)-[1-(3,4-dichlorophenyl)cyclobutyl](pyrimidin-2-yl)methanol] | 68 | 5.6 | 13.3 |  |
| OC(c1ccccn1)C1(c2ccc(OC(F)(F)F)cc2)CCNCC1 (centres unmarked) [Example 144, pyridin-2-yl{4-[4-(trifluoromethoxy)phenyl]piperidin-4-yl}methanol] | >85 | 51 | > 20 | > 20 |
